Measured values from patent US20190110478A1, “ANTIBACTERIAL COMPOSITION, ANTIBACTERIAL FILM, ANTIBACTERIAL FILM-ATTACHED SUBSTRATE, METHOD FOR MANUFACTURING ANTIBACTERIAL FILM, AND METHOD FOR MANUFACTURING ANTIBACTERIAL FILM-ATTACHED SUBSTRATE” (FUJIFILM Corporation, priority 2016, published 2019).

Assay: Viscosity characteristics of water-insoluble nitrogen-containing compound (rotary viscometer)
Format: physicochemical
Details: 1% by mass solid content in propylene glycol monomethyl ether, 25° C.
Procedure: In a case in which a water-insoluble nitrogen-containing compound is dissolved in propylene glycol monomethyl ether to obtain a solution having a solid content of 1% by mass, the viscosity of the solution at 25° C. as measured using a rotary viscometer is 10 mPa·s or higher.

Q: With `CC(C)(C)c1ccc(O)c(-n2nc3ccccc3n2)c1` [TINUVIN PS] as the compound, how does the Viscosity of solution read?
A: The Viscosity of solution was 2.1 mPa·s.
